Measurements: patent US11571459B2, “Methods for treating cancer using PS-targeting antibodies with immuno-oncology agents” (ONCXERNA THERAPEUTICS, INC., priority 2017, dated 2023)

Legend:
[1] = tested on: previously treated non-squamous NSCLC
Method: The primary objective of this study was to compare the ORR (CR+PR) among the treatment arms. Secondary objectives included comparing PFS, DR, OS, safety and PK.
Additional blood draws were performed for these patients during Cycles 1 and 2 at specified time points.
Samples from the NSCLC Phase II trial of Example IX (PPHM 0902) were tested using the functional β2GPI assay of Example XII.

[2] = tested on: previously-treated Stage IIIb/IV non-squamous NSCLC; settings: in vivo
Text: (§1) This global, double-blind Phase III trial was initiated in 2012. Selection criteria were for patients with Stage IIIb/IV non-squamous NSCLC who progressed on platinum-doublet chemotherapy (should have progressed on appropriate targeted therapy if known EGFR or ALK mutation), with ECOG PS 0-1 and prior immunotherapy allowed (ECOG is the performance status scale defined by the Eastern Cooperative Oncology Group). […] The primary endpoint was overall survival (OS) and secondary endpoints included objective response rate (Independent Central Review, ICR), progression-free survival (ICR), safety, PK, Quality of Life (LCSS) and exploratory biomarkers, including immune correlates.
(§2) OS was analyzed by VeriStrat subgroups using Kaplan-Meier statistical methods.
(§3) A single cutoff method was first used to assess the patient β2GPI data.
(§4) The initial analyses described above prompted further, extensive analyses of the data in 592 evaluable patients. These analyses used a two cutoff method (Klein & Moeschberger, 2003).
(§5) Archival tissue obtained at the time of diagnosis was requested, but not required, in the Phase III trial of Example X. Formalin-fixed paraffin-embedded (FFPE) slides were stained with antibodies for a panel of lymphoid (or tumor) cell markers, as described in Feng et al., 2015: CD3+, CD8+, FoxP3+, PD-L1+, CD163+ and CK+ (cytokeratin, an epithelial carcinoma marker) using a mutliplex (6-plex) quantitative immunohistochemistry (IHC) assay (OPAL®, PerkinElmer, Waltham, Mass., USA) and using DAPI. The PD-L1 antibody used was the rabbit anti-PD-L1 antibody termed E1L3N® XP® (Cell Signaling Technology, (CST), Danvers, Mass., Catalogue #13684; Mahoney et al., 2015). Baseline PD-L1 expression was retrospectively scored on tumor cells (TC, i.e., CK+) and PD-L1 expressing tumor cells were classified according to their percentage within the total number of tumor cells using established assays and classifications (Fehrenbacher et al., 2016), as follows: TC3≥50%; TC2≥5% and ≤50%; TC1≥1% and <5%; and TC0<1%. Cox regression models for PD-L1 IHC subgroup populations were used for correlation with OS.
(§6) Kaplan-Meier statistical methods and Cox proportional hazard models were utilized to evaluate and contrast the correlation of peripheral (and intratumoral) IFNγ levels with OS based on a data cut from the Phase III trial (Example X) dated Feb.

[3] = tested on: previously-treated Stage IIIb/IV non-squamous NSCLC; assay: Phase III trial of bavituximab plus docetaxel in NSCLC
Text: as §1, §2, §3, §4, §5, §6

[4] = 70% of targeted OS events reached
[5] = about 85% of targeted OS events
[6] = about 85% of targeted OS events, vs docetaxel alone
[7] = functional β2GPI ≥200 μg/mL, 578 evaluable patients
[8] = functional β2GPI ≥200 μg/mL, 592 evaluable patients

bavituximab plus docetaxel: treatment arm: weekly 3 mg/kg bavituximab in combination with docetaxel
HR for OS versus combined arm ([1]; 3 mg/kg): 0.66
Overall Survival, Median ([1]; ITT, all with docetaxel, Bavituximab arm 3 mg/kg): 11.7 Months
Grade 5 (fatal) events ([1]; bavituximab 3 mg/kg, combined control = placebo or 1 mg/kg bavituximab, all with docetaxel): 5.0%
Grade 3 or higher adverse events [2]: 68%
median OS ([3]; 12 months follow-up, about 85% of targeted OS events): 10.5 months
mOS [3, 4]: 10.7 months
median PFS [3, 4]: 4.1 months
mOS ([3]; IFNγ high, no subsequent IO): 9.0 months
HR ([3]; IFNγ high, no subsequent IO, vs docetaxel alone): 1.14
mOS ([3]; IFNγ high, received subsequent IO): 13.9 months
HR ([3]; IFNγ high, received subsequent IO, vs docetaxel alone): 1.0
mOS ([3]; IFNγ low, no subsequent IO): 10.5 months
HR ([3]; IFNγ low, no subsequent IO, vs docetaxel alone): 1.17
mOS ([3]; IFNγ low, received subsequent IO): not reached
HR ([3]; IFNγ low, received subsequent IO, vs docetaxel alone): 0.24
mOS ([3]; VS Good patients (VeriStrat)): 11.2 months
mOS ([3]; VS Poor patients (VeriStrat)): 5.8 months
ORR [3, 5]: 15%
PFS [3, 5]: 4.2 months
HR for OS [3, 6]: 1.06
HR for PFS [3, 6]: 1.02
HR for death ([3]; functional β2GPI 200-240 μg/mL): 0.67
improvement in mOS versus control group ([3]; functional β2GPI 200-240 μg/mL): 5.5 month
mOS ([3]; functional β2GPI 200-240 μg/mL): 13.2 months
HR for death [3, 7]: 0.77
mOS [3, 7]: 11.9 months
HR for death [3, 8]: 0.81
mOS [3, 8]: 11.9 months
mOS ([3]; higher PD-L1 expression (TC1/2/3, ≥1%)): 6.0 months
HR, PD-L1 TC0 versus TC1/2/3 within arm ([3]; in vivo): 0.38
mOS ([3]; negative PD-L1 expression (TC0, <1%)): 11.5 months
HR ([3]; no subsequent IO, vs docetaxel alone): 1.16
mOS ([3]; patients receiving subsequent IO): has yet to be reached
HR ([3]; patients receiving subsequent IO, vs docetaxel alone): 0.46
mOS ([3]; patients who did not receive subsequent IO): 9.2 months
mOS ([3]; pre-treatment serum IFNγ high (≥ median 0.093 μg/mL)): 9.2 months
mOS ([3]; pre-treatment serum IFNγ low (< median 0.093 μg/mL)): 11.9 months
